Earlier results, collected in patent US20050065130A1, “Pharmaceutical compositions and methods comprising combinations of 2-alkylidene-19-nor-vitamin D derivatives and a cyclooxgenase-2 inhibitor” (Pfizer Inc., priority 2003, published 2005).

Structure (SMILES) | bone calcium mobilization (in words) (chronic mode 7 days, both dose levels (130 and 260 pmol/day)) | activity on bone calcium mobilization (serum calcium), times that of the native hormone 1,25-(OH)2D3 (relative to 1,25-(OH)2D3, chronic mode 7 days) | serum calcium value (as printed: twice the dose, at the 130 pmol dose) [mg/100 ml]
C=C1[C@H](O)CC(=C/C=C2\CCC[C@]3(C)[C@@H]([C@H](C)CCCC(C)(C)O)CC[C@@H]23)C[C@H]1O [2-Methylene-19-Nor-1,25-(OH)2D3, 1α,25-dihydroxy-2-methylene-19-nor-vitamin D3] | extremely strong | 10-100 times | 
C=C1/C(=C\C=C2/CCC[C@]3(C)[C@@H]([C@H](C)CCCC(C)(C)O)CC[C@@H]23)C[C@@H](O)C[C@@H]1O [1,25-(OH)2D3, 1,25-dihydroxyvitamin D3, reference compound] |  |  | 13.8
